The test system of the experiment is A431 human skin squamous cell carcinoma cells. As to the kind of experiment: In vitro cellular uptake quantified by flow cytometry. Format: cell-based. The conditions noted are these: all concentrations (0.2–25 μM), 90 min, ratio of Cf-positive cells and mean fluorescence intensity. In general terms: Flow cytometry measures light scatter and fluorescence of single cells or particles in a stream.

Where a SMILES comes first, the peptide text is derived from it.

Take `N=C(N)NCCC[C@H](NC(=O)[C@@H]1CCCN1C(=O)[C@H](CCC(N)=O)NC(=O)[C@H](CCCCN)NC(=O)[C@H](CC(=O)O)NC(=O)[C@@H]1CCCN1C(=O)[C@H](Cc1ccccc1)NC(=O)CNC(=O)[C@H](CCC(=O)O)NC(=O)[C@H](Cc1ccccc1)NC(=O)[C@@H](N)Cc1ccccc1)C(=O)N[C@@H](CCCCN)C(=O)N[C@@H](CCCCN)C(N)=O` [Peptide S100] (H-FFEGFPDKQPRKK-NH2): the “cellular uptake rate, comparison between peptides” value is recorded as “lowest cellular uptake rate”.

Values taken from PMC8697381 (ACS Omega, 2021).
